According to patent publication EP0712936B1, “LOW-MOLECULAR DNA FROM STURGEON MILT, A METHOD OF OBTAINING THE DNA AND A PHARMACEUTICAL PREPARATION BASED ON IT” (NAUCHNO-PROIZVODSTVENNOE PREDPRIYATIE "FARMEK", priority 1993, dated 1994):
Read-outs that look alike come from different tables or passages of the source.

Tests used:
HIV [1] = type: cell-based; settings: comparison preparation, no ratio
Experimental: (§1) The antiviral activity of preparations was assessed by the methods recommended for this purpose by the World Health Organization (20, 21). For this purpose we used the cultures of inoculated cell lines SEM and MT-4. The cells were cultured at a concentration of (0.03-0.05)x10^6 cells per 1 ml of PPM1 1640 with 10-% fetal serum of calves, 300 mg/ml of glutamine, 100 mkg/ml of heptamicine and grown in the form of a suspension. The vital activity of cells was checked by coloring them with a 0.4-% solution of trypan blue. The virus sources were strains HIV/IVS and HIV - 1 HTLV/IIIB.
(§2) The suspension of cells was placed into 24-hole boards, treated with different doses of the preparation and infected with HIV. The multiplicity of infection was 0.01 TCD50 per cell. Then the cultures were incubated at 37 C in the atmosphere containing 5% CO2 at a moisture content of 98% for 5-7 days before determining the cytopathic effect of the virus on the cell culture.
A culture of inoculated cells, line CEMSS and MT-4 was used in the experiment. […]
(§3) Then the cultures were incubated at 37 C in the atmosphere containing 5% of CO at a moisture content of 98% for 5-7 days before determining the cytopathic effect of the virus on the cell culture. The formation of viral antigen was assessed by an immunofermental analysis.

HIV [2] = type: cell-based; settings: comparison preparation, no ratio; remark: listed apart in the source
Experimental: as §1, §2
The formation of viral antigen was assessed by immuno-fermental analysis.
as §3

HIV [3] = experiment: anti-HIV activity at different modes of administration, quantity of syncytia; type: in vivo; settings: placebo 100

SMILES: Cc1cn([C@H]2C[C@H](N=[N+]=[N-])[C@@H](CO)O2)c(=O)[nH]c1=O [AZT (azidothymidine), 3-azi-3-desoxythymidine]
- No of syncytia, % of virus control (HIV [1]): 8%
- Data of immuno-enzyme analysis (HIV [2]): 0.1 mg/mg
- Data of immuno-enzyme analysis, optical density (HIV [2]): 0.091
- Qty of syncytia, % (HIV [3]; intracerebral): 10%
- Qty of syncytia, % (HIV [3]; intranasal): 75%
- quantity of survived mice / quantity of infected mice (nonlinear white mice; intraabdominal, 5 mg/kg): 6/6
- quantity of survived mice / quantity of infected mice (nonlinear white mice; intraabdominal, 10 mg/kg): 6/6
- quantity of survived mice / quantity of infected mice (nonlinear white mice; intraabdominal, 20 mg/kg): 6/6
- quantity of survived mice / quantity of infected mice (nonlinear white mice; intraabdominal, 35 mg/kg): 6/6
- quantity of survived mice / quantity of infected mice (nonlinear white mice; intraabdominal, 50 mg/kg): 6/6
- quantity of survived mice / quantity of infected mice (nonlinear white mice; intraabdominal, 75 mg/kg): 6/6
- mortality of mice (nonlinear white mice; intracerebral introduction, doses from 10 to 50 mg/kg): 50%
- quantity of survived mice / quantity of infected mice (nonlinear white mice; intracerebral, 5 mg/kg): 6/6
- quantity of survived mice / quantity of infected mice (nonlinear white mice; intracerebral, 10 mg/kg): 6/6
- quantity of survived mice / quantity of infected mice (nonlinear white mice; intracerebral, 20 mg/kg): 6/6
- quantity of survived mice / quantity of infected mice (nonlinear white mice; intracerebral, 35 mg/kg): 6/6
- quantity of survived mice / quantity of infected mice (nonlinear white mice; intracerebral, 50 mg/kg): 6/6
- quantity of survived mice / quantity of infected mice (nonlinear white mice; intracerebral, 75 mg/kg): 6/6
- quantity of survived mice / quantity of infected mice (nonlinear white mice; intranasal, 5 mg/kg): 6/6
- quantity of survived mice / quantity of infected mice (nonlinear white mice; intranasal, 10 mg/kg): 6/6
- quantity of survived mice / quantity of infected mice (nonlinear white mice; intranasal, 20 mg/kg): 6/6
- quantity of survived mice / quantity of infected mice (nonlinear white mice; intranasal, 35 mg/kg): 6/6
- quantity of survived mice / quantity of infected mice (nonlinear white mice; intranasal, 50 mg/kg): 6/6
- quantity of survived mice / quantity of infected mice (nonlinear white mice; intranasal, 75 mg/kg): 6/6
- quantity of survived mice / quantity of infected mice (nonlinear white mice; subcutaneous, 5 mg/kg): 6/6
- quantity of survived mice / quantity of infected mice (nonlinear white mice; subcutaneous, 10 mg/kg): 6/6
- quantity of survived mice / quantity of infected mice (nonlinear white mice; subcutaneous, 20 mg/kg): 6/6
- quantity of survived mice / quantity of infected mice (nonlinear white mice; subcutaneous, 35 mg/kg): 6/6
- quantity of survived mice / quantity of infected mice (nonlinear white mice; subcutaneous, 50 mg/kg): 6/6
- quantity of survived mice / quantity of infected mice (nonlinear white mice; subcutaneous, 75 mg/kg): 6/6
